Key:
Format in all cases: biochemical
[1] = target: T1, Fyn (Homo sapiens, UniProt P06241); assay: Kinase inhibition assay (33P transfer), Fyn; conditions: read-out: Fyn-1
T1 construct: Kinases are expressed as either kinase domains or full length constructs; made in house
Procedure, shortened: (§1)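 Using immobilised substrate copolymers (poly(Glu,Tyr) 4:1; poly(Arg,Ser) 3:1) and [33P]ATP, purified fusion kinases were allowed to react; plates were then rinsed in 0.5% phosphoric acid and counted in a scintillation detector. Half-maximal inhibition of label transfer defines IC50.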

[2] = target: T2, Itk (Homo sapiens, UniProt Q08881); assay: Kinase inhibition assay (33P transfer), Itk; conditions: read-out: Itk-1
T2 construct: Kinases are expressed as either kinase domains or full length constructs; made in house
T2 sequence (Q08881 1-620): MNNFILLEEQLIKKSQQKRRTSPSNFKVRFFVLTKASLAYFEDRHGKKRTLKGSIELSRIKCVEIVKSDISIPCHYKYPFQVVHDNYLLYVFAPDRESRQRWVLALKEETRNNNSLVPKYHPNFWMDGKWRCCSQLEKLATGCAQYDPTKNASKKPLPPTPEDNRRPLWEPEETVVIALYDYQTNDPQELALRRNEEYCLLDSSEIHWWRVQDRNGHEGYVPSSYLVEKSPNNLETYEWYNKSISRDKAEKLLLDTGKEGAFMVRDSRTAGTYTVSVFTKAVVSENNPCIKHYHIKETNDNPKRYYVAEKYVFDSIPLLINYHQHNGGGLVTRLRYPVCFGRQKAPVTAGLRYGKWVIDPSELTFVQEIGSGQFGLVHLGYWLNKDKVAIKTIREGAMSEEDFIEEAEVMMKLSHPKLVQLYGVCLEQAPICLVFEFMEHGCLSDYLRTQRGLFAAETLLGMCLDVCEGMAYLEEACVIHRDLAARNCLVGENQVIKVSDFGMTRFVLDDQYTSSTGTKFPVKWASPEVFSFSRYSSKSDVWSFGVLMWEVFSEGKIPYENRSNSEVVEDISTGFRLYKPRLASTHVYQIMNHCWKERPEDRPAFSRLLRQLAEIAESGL
Procedure, shortened: as §1

[3] = target: T3, Lck (Homo sapiens, UniProt P06239); assay: Kinase inhibition assay (33P transfer), Lck; conditions: read-out: Lck-1
T3 construct: Kinases are expressed as either kinase domains or full length constructs; made in house
Procedure, shortened: (§2)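 Steps: express kinase as GST or polyHistidine fusion in E. coli or High Five cells; optionally co-express or mix with regulatory polypeptides; incubate with 33P-ATP and plate-attached poly(Glu,Tyr) 4:1 or poly(Arg,Ser) 3:1; wash with 0.5% phosphoric acid; count by liquid scintillation.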

[4] = target: T4, AKT (Homo sapiens, UniProt Q9Y243); assay: Kinase inhibition assay (33P transfer), AKT; conditions: Table 2, kinase inhibition class; read-out: AKT3-1
T4 construct: Kinases are expressed as either kinase domains or full length constructs; made in house
Procedure, shortened: as §2

[5] = target: T5, Lyn (Homo sapiens, UniProt P07948); assay: Kinase inhibition assay (33P transfer), Lyn; conditions: Table 6, Lyn-1 kinase inhibition class
T5 construct: Kinases are expressed as either kinase domains or full length constructs; made in house
Procedure, shortened: as §1

[6] = target: T6, Src (Homo sapiens, UniProt P12931); assay: Kinase inhibition assay (33P transfer), Src; conditions: Table 6, Src-1 kinase inhibition class
T6 construct: Kinases are expressed as either kinase domains or full length constructs; made in house
Procedure, shortened: as §1

[7] = target: T7, Flt-1 (Homo sapiens, UniProt P17948); assay: Kinase inhibition assay (33P transfer), Flt-1
T7 construct: Kinases are expressed as either kinase domains or full length constructs; made in house
Procedure, shortened: as §1

[8] = target: T8, FGFR1 (Homo sapiens, UniProt P11362); assay: Kinase inhibition assay (33P transfer), FGFR1; conditions: read-out: FGFR1-1
T8 construct: Kinases are expressed as either kinase domains or full length constructs; made in house

[9] = target: T9, ErbB2 (Homo sapiens, UniProt P04626); assay: Kinase inhibition assay (33P transfer), ErbB2; conditions: read-out: ErbB2-2
T9 construct: Kinases are expressed as either kinase domains or full length constructs; made in house
Procedure, shortened: as §1

[10] = target: T10, ErbB4 (Homo sapiens, UniProt Q15303); assay: Kinase inhibition assay (33P transfer), ErbB4; conditions: read-out: ErbB4-1
T10 construct: Kinases are expressed as either kinase domains or full length constructs; made in house

[11] = target: T11, PDGFRB (Homo sapiens, UniProt P09619); assay: Kinase inhibition assay (33P transfer), PDGFRB; conditions: read-out: PDGFRB-1
T11 construct: Kinases are expressed as either kinase domains or full length constructs; made in house

[12] = target: T12, Zap-70 (Homo sapiens, UniProt P43403); assay: Kinase inhibition assay (33P transfer), Zap-70; conditions: read-out: Zap-1
T12 construct: Kinases are expressed as either kinase domains or full length constructs; made in house
T12 sequence (P43403 1-619): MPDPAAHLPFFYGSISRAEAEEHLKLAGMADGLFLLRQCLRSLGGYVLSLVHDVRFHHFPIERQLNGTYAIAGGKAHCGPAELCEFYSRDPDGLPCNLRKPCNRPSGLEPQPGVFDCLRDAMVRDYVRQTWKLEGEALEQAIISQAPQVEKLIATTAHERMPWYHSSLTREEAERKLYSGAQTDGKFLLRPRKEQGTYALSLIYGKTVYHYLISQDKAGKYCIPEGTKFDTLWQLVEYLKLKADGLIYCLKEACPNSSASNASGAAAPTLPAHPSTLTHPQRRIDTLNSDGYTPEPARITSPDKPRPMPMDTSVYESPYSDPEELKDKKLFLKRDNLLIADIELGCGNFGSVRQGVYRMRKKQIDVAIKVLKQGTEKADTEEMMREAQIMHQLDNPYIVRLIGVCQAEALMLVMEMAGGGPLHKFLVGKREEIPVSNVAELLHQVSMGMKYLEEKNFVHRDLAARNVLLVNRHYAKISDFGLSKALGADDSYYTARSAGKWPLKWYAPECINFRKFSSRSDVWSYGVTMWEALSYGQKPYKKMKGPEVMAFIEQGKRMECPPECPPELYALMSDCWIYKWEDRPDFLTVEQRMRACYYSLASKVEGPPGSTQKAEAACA
Procedure, shortened: as §2

[13] = target: T13, IGFR-1 (Homo sapiens, UniProt P08069); assay: Kinase inhibition assay, IGFR-1 (Table 2); conditions: Table 2, kinase inhibition class
T13 construct: Kinases are expressed as either kinase domains or full length constructs; made in house

[14] = target: T14, c-Met (Homo sapiens, UniProt P08581); assay: Kinase inhibition assay (33P transfer), c-Met; conditions: Table 2, kinase inhibition class; read-out: Met-1
T14 construct: Kinases are expressed as either kinase domains or full length constructs; made in house
Procedure, shortened: as §1

[15] = target: T15, Kdr (Homo sapiens, UniProt P35968); assay: Kinase inhibition assay (33P transfer), Kdr; conditions: read-out: KDR-1
T15 construct: Kinases are expressed as either kinase domains or full length constructs; made in house
Procedure, shortened: as §2

[16] = target: T16, Ret-1 (Homo sapiens, UniProt P07949); assay: Kinase inhibition assay (33P transfer), Ret; conditions: Table 6, Ret-1 kinase inhibition class
T16 construct: Kinases are expressed as either kinase domains or full length constructs; made in house

[17] = target: T17, Hck-1 (Homo sapiens, UniProt P08631); assay: Kinase inhibition assay (33P transfer), Hck; conditions: Table 6, Hck-1 kinase inhibition class
T17 construct: Kinases are expressed as either kinase domains or full length constructs; made in house

[18] = target: T18, Tek (Homo sapiens, UniProt Q02763); assay: Kinase inhibition assay (33P transfer), Tek; conditions: read-out: Tek-1
T18 construct: Kinases are expressed as either kinase domains or full length constructs; made in house
Procedure, shortened: as §1

[19] = target: T19, EGFR (Homo sapiens, UniProt P00533); assay: Kinase inhibition assay (33P transfer), EGFR; conditions: Table 2, kinase inhibition class; read-out: EGFR-1
T19 construct: Kinases are expressed as either kinase domains or full length constructs; made in house
Procedure, shortened: as §1

T16 sequence (P07949 29-1114): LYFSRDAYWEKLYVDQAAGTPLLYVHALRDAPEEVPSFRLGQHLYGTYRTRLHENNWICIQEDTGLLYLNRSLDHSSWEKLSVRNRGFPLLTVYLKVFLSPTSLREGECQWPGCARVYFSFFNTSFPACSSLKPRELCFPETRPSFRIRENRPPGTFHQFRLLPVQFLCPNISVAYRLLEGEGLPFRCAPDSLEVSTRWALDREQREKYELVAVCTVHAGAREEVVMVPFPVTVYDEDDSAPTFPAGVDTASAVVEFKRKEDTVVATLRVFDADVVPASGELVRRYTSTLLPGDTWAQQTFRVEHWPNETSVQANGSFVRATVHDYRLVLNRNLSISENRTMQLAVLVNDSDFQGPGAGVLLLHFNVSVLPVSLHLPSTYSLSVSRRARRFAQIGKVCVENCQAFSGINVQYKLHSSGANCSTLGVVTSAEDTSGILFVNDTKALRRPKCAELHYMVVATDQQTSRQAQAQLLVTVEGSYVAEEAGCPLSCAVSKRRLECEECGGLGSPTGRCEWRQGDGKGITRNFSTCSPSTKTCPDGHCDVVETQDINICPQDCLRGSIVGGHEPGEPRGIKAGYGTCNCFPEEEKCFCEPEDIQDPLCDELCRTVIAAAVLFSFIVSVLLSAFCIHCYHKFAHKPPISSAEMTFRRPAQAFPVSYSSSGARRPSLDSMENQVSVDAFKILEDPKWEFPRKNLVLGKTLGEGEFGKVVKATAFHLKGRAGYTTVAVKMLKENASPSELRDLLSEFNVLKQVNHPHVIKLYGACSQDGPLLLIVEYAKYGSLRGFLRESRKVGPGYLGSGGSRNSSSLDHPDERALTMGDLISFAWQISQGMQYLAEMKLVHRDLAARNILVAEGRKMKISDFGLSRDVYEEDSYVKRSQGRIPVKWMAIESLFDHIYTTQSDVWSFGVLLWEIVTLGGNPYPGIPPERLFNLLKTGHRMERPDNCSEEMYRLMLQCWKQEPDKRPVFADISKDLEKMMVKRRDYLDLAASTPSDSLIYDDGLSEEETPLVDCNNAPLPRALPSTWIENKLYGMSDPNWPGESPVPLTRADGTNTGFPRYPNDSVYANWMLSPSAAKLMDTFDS
T5 sequence (P07948 whole entry, species assumed, the tested form may be a part): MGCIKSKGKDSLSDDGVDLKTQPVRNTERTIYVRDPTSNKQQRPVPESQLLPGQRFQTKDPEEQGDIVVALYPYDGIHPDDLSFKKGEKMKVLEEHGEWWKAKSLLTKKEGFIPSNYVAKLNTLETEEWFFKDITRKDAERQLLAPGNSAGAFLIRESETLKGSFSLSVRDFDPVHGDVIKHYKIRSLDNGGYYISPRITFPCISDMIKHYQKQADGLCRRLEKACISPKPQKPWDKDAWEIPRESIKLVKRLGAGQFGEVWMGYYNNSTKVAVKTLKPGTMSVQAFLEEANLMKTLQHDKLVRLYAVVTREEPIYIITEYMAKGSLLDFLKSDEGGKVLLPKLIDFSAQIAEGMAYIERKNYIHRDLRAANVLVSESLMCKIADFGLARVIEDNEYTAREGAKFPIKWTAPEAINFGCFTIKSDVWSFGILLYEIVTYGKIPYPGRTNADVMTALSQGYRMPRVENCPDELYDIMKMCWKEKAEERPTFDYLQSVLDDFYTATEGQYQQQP
T6 sequence (P12931 whole entry, species assumed, the tested form may be a part): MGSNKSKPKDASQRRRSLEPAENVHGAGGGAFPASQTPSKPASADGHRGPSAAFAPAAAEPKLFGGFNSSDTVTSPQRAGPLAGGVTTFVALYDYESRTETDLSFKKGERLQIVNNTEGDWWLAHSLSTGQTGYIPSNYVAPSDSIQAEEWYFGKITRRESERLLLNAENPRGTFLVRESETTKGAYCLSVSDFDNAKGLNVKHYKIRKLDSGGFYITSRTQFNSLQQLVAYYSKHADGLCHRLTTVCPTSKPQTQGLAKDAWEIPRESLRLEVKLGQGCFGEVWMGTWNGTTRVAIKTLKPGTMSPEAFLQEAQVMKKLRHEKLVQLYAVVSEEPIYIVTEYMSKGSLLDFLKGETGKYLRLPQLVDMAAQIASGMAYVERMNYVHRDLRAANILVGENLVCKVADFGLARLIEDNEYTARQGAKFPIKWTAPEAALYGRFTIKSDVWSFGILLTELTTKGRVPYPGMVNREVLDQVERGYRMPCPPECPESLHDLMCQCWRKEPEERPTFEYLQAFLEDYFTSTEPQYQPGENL
T4 sequence (Q9Y243 whole entry, the tested form may be a part): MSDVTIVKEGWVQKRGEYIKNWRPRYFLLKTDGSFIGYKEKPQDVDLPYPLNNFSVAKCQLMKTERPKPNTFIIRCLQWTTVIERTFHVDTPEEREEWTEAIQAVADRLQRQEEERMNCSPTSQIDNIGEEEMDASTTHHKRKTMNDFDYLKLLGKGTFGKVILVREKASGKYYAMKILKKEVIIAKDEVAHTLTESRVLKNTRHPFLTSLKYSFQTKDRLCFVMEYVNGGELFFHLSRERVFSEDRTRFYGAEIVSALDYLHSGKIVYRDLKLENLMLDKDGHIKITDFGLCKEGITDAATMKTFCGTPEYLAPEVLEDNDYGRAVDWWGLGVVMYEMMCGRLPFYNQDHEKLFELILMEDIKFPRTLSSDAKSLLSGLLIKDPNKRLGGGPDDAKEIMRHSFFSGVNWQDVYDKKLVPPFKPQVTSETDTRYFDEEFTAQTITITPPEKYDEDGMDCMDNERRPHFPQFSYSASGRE
T19 sequence (P00533 25-1210, species assumed): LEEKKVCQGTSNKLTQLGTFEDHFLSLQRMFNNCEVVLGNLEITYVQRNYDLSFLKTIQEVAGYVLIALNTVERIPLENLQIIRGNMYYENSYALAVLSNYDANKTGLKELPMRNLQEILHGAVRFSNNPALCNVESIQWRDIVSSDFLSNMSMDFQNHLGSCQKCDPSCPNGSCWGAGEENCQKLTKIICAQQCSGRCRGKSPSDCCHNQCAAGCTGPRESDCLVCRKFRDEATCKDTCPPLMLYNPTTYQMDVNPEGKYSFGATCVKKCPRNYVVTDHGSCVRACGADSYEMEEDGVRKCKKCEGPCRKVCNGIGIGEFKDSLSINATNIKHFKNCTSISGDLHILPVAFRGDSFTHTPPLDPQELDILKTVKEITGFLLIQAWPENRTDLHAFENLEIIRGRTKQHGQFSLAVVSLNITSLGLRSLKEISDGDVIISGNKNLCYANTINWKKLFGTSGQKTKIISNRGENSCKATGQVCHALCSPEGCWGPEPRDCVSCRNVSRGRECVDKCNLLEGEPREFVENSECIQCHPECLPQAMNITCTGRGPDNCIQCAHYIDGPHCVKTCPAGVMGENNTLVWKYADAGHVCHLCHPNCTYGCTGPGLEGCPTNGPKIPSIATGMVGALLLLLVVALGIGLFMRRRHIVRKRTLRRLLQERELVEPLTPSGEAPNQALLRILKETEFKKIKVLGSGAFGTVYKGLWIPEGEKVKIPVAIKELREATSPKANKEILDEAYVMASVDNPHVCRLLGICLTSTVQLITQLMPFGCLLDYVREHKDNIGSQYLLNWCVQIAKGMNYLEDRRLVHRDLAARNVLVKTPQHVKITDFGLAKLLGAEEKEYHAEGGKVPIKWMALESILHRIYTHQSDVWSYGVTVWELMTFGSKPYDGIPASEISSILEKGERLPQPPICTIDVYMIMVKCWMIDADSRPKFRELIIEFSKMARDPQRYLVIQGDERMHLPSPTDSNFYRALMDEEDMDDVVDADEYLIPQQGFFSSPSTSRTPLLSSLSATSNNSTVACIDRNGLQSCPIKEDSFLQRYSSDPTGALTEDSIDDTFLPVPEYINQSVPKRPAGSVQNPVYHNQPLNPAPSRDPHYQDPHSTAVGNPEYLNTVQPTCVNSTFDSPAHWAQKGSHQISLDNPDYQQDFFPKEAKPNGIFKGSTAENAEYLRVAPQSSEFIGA
T8 sequence (P11362 22-822, species assumed): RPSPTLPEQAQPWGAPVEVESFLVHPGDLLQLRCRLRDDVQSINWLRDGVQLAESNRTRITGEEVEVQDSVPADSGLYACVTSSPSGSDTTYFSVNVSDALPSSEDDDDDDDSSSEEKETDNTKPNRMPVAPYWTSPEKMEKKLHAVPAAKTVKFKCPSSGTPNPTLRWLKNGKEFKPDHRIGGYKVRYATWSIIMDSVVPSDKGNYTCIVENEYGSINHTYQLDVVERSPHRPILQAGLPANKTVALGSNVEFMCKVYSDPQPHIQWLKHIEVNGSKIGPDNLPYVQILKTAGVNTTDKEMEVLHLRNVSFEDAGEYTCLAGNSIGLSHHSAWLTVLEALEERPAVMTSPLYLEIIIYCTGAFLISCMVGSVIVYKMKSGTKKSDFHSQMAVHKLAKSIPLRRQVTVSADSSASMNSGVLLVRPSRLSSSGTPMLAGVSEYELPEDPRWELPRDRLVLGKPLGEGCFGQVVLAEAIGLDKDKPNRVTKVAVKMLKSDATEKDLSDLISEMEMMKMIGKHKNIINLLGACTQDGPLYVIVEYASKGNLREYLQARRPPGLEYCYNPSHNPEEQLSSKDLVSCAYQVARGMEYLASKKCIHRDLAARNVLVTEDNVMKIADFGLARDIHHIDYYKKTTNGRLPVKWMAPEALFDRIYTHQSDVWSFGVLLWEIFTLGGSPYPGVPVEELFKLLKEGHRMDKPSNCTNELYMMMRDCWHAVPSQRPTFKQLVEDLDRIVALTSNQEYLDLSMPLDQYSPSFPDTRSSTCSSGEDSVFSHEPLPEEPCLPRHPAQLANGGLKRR

SMILES	IC50 [1]	IC50 [2]	IC50 [3]	IC50 [4]	IC50 [5]	IC50 [6]	IC50 [7]	IC50 [8]	IC50 [9]	IC50 [10]	IC50 [11]	IC50 [12]	IC50 [13]	IC50 [14]	IC50 [15]	IC50 [16]	IC50 [17]	IC50 [18]	IC50 [19]
CCc1cccc(Nc2ncnc(-n3c(N)nc4ccccc43)n2)c1 [Compound 655]	> 13.6 µM	1.21 to 7.24 µM	1.21 to 7.24 µM	> 13.6 µM	7.24 to 10.6 µM	7.24 to 10.6 µM	< 1.21 µM	1.21 to 7.24 µM	1.21 to 7.24 µM	7.24 to 10.6 µM	1.21 to 7.24 µM	> 13.6 µM	< 1.21 µM	1.21 to 7.24 µM	< 1.21 µM	< 1.21 µM	> 13.6 µM	7.24 to 10.6 µM	1.21 to 7.24 µM
Nc1nc2ccccc2n1-c1ncnc(Nc2ccc(N3CCOCC3)cc2)n1 [Compound 479]	> 11.6 µM	6.18 to 9.01 µM	1.03 to 6.18 µM	> 11.6 µM	9.01 to 11.6 µM	> 11.6 µM	1.03 to 6.18 µM	1.03 to 6.18 µM	6.18 to 9.01 µM	9.01 to 11.6 µM	6.18 to 9.01 µM	> 11.6 µM	< 1.03 µM	6.18 to 9.01 µM	1.03 to 6.18 µM	1.03 to 6.18 µM	> 11.6 µM	> 11.6 µM	9.01 to 11.6 µM
COc1cc(Nc2ncnc(-n3c(NCc4cccc(C)c4)nc4ccccc43)n2)cc(OC)c1OC [Compound 515]	> 9.04 µM	> 9.04 µM	< 0.804 µM	> 9.04 µM	> 9.04 µM	> 9.04 µM	0.804 to 4.82 µM	< 0.804 µM	> 9.04 µM	> 9.04 µM	< 0.804 µM	> 9.04 µM	> 9.04 µM	> 9.04 µM	< 0.804 µM	< 0.804 µM	> 9.04 µM	7.03 to 9.04 µM	> 9.04 µM

Other lines, results leading:

IC50 [1]	IC50 [2]	IC50 [3]	IC50 [4]	IC50 [5]	IC50 [6]	IC50 [7]	IC50 [8]	IC50 [9]	IC50 [10]	IC50 [11]	IC50 [12]	IC50 [13]	IC50 [14]	IC50 [15]	IC50 [16]	IC50 [17]	IC50 [18]	IC50 [19]	SMILES
> 8.69 µM	> 8.69 µM	> 8.69 µM	> 8.69 µM	4.63 to 6.76 µM	> 8.69 µM	0.772 to 4.63 µM	0.772 to 4.63 µM	> 8.69 µM	> 8.69 µM	0.772 to 4.63 µM	> 8.69 µM	6.76 to 8.69 µM	> 8.69 µM	< 0.772 µM	< 0.772 µM	> 8.69 µM	> 8.69 µM	> 8.69 µM	COc1cc(Nc2ncnc(-n3c(NCc4ccc(Cl)cc4)nc4ccccc43)n2)cc(OC)c1OC [Compound 944]
> 9.03 µM	0.802 to 4.81 µM	0.802 to 4.81 µM	> 9.03 µM	> 9.03 µM	> 9.03 µM	0.802 to 4.81 µM	0.802 to 4.81 µM	> 9.03 µM	> 9.03 µM	4.81 to 7.02 µM	> 9.03 µM	> 9.03 µM	> 9.03 µM	< 0.802 µM	0.802 to 4.81 µM	> 9.03 µM	> 9.03 µM	> 9.03 µM	COc1cc(Nc2ncnc(-n3c(NCCc4ccccn4)nc4ccccc43)n2)cc(OC)c1OC [Compound 510]

— US7074789B2, “Kinase inhibitors” (Amgen Inc., priority 1999, dated 2006)
